Consider eleven molecules from patent US20220388972A1, “CHROMAN-4-ONE DERIVATIVES FOR THE TREATMENT AND PROPHYLAXIS OF HEPATITIS B VIRUS INFECTION” (Hoffmann-La Roche Inc., priority 2018, published 2022).

In experiment [1] the test system is HBV cccDNA (HBeAg as surrogate marker) in HepDES19 cells. Put plainly: Engineered HepDES19 primary screen assay (HBeAg as surrogate marker for cccDNA). It is filed as cell-based. The following applies: Hepatitis B virus, HepDES19, 120 h. The source says:
The assay was employed to screen for cccDNA inhibitors. HepDES19 is a cccDNA-producing cell line. In this cell line, HBeAg in the cell culture supernatant as surrogate marker, as HBeAg production depends on cccDNA level and activity. HepDES19 is an engineered cell line which contains a 1.1 unit length HBV genome, and pgRNA transcription from the transgene is controlled by Tetracycline (Tet). In the absence of Tet, pgRNA transcription will be induced, but HBV e antigen (HBeAg) could not be produced from this pgRNA due to very short leader sequence before the HBeAg start codon and the start codon is disrupted. Only after cccDNA is formed, the missing leader sequence and start codon mutation would be restored from the 3′-terminal redundancy of pgRNA, and then HBeAg could be synthesized. Therefore, HBeAg could be used as a surrogate marker for cccDNA (Zhou, T. et al., Antiviral Res. (2006), 72 (2), 116-124; Guo, H. et al., J. Virol. (2007), 81 (22), 12472-12484).
HepDES19 cells were seeded at 2×10^6 cells per T150 flask and cultured with the culture medium (Dulbecco's Modified Eagle Medium: Nutrient Mixture F-12 [DMEM-F12, Gibco Cat. 11320-82], 10% Fetal Bovine Serum [FBS, Clontech Cat. 631101], 0.1 mM Non-Essential Amino Acids Solution [NEAA, Gibco Cat. 11140-050], 50 μg/mL Penicillin-Streptomycin [PS, Invitrogen Cat. 15140-163], 500 μg/mL Geneticin [G418, Invitrogen Cat. 10131-027]) containing 3 μg/mL Tet (Sigma, Cat. 87128) for 5 days. Cells were then seeded at 4×10^6 cells per T150 in the same culture medium as described above in the absence of Tet for 8 days. Cells were then harvested and frozen at density of 2×10^6 cells per mL. For compound testing, the frozen cells were thawed and seeded into 96-well plates at a density of 6×10^4 cells per well. At 24 hours after seeding, half log serial dilutions of compounds made with Dimethyl sulfoxide (DMSO, Sigma, Cat. D2650) were further diluted with the same culture medium as described above before they were added to the cells to reach desired final compound concentrations and 1% DMSO concentration. Plates were then incubated at 37° C. for another 5 days before measurement of HBeAg level and cell viability. Intracellular HBeAg level were measured with enzyme-linked immunosorbent assay (ELISA) kit (Shanghai Kehua Diagnostic Medical Products Co., Ltd). Cell viability was assessed using Cell Counting Kit-8 (DonJindo, Cat. CK04-20). IC50 values were derived from the dose-response curve using 4 parameters logistic curve fit method.
The compounds of the present invention were tested for their capacity to inhibit extracellular HBeAg level as described herein.

Experiment [2] deals with HBV (extracellular HBsAg) in primary human hepatocytes. Put plainly: Cryopreserved primary human hepatocytes (PHH) HBV infection assay, HBsAg. The following applies: Hepatitis B virus, Hepatocyte, 216 h, HBV-infected cryopreserved PHH, 9 days post-compound treatment, CLIA. It is filed as cell-based. The method, then:
This assay is used to confirm the anti-HBV effect of the compounds in HBV PHH infection assay. Cryopreserved PHH (BioreclamationIVT, Lot YJM) was thawed at 37° C. and gently transferred into pre-warmed InVitroGRO HT medium (BioreclamationIVT, Cat. S03317).
The mixture was centrifuged at 70 relative centrifugal force (RCF) for 3 minutes at RT, and the supernatant was discarded. Pre-warmed InVitroGRO CP medium (BioreclamationIVT, Cat #S03316) was added to the cell pellet to gently re-suspend cells. The cells were seeded at the density of 5.8×10^4 cells per well to collagen I coated 96-well plate (Gibco, Cat. A1142803) with the InVitroGRO CP medium. All plates were incubated at 37° C. with 5% CO2 and 85% humidity.
At 20 hours after plating, the medium was changed to PHH culture medium (Dulbecco's Modified Eagle Medium (DMEM)/F12 (1:1) (Gibco, Cat. 11320-033), 10% fetal bovine serum (Gibco Cat. 10099141), 100 U/mL penicillin, 100 μg/mL streptomycin (Gibco, Cat. 151401-122), 5 ng/mL human epidermal growth factor (Invitrogen Cat. PHG0311L), 20 ng/mL dexamethasone (Sigma, Cat. D4902) and 250 ng/mL human recombinant insulin (Gibco, Cat. 12585-014)). And the cells were incubated at 37° C. with 5% CO2 and 85% humidity for 4 hours. The medium was then changed to pre-warmed PHH culture medium containing 4% polyethylene glycol (PEG) MW8000 (Sigma, Cat. P1458-50 ML) and 1% DMSO (Sigma, Cat. D2650). 5.8×10^6 genomic equivalents of HBV were added into the medium.
At 24 hours' post-infection, the cells were gently washed with PBS and refreshed with PHH culture medium supplemented with 1% DMSO, and 0.25 mg/mL Matrix gel (Corning, Cat. 356237) at 200 μL per well. All plates were immediately placed in at 37° C. CO2 incubator.
24 hours later, serial dilutions of compounds made with DMSO were further diluted with the same culture medium (PHH culture medium supplemented with 1% DMSO and 0.25 mg/mL Matrix gel as described above) before they were added to the cells to reach desired final compound concentrations and 1% DMSO concentration. The medium containing the compounds were refreshed every three days.
At 9 days' post-compound treatment, extracellular HBsAg level were measured with Chemiluminescence Immuno Assay (CLIA) kit (Autobio, HBsAg Quantitative CLIA).
HBsAg IC50 and HBV DNA IC50 values were derived from the dose-response curve using 4 parameters logistic curve fit method. The compounds of formula (I) have HBsAg IC50<20 μM, particularly <1 μM; and HBV DNA IC50<50 μM.

As usually defined, the IC50 is the concentration at which inhibition is half-maximal. A lower IC50 goes with inhibition by little substance. In the case of `O=C(O)CCOc1cc(OC(F)(F)F)ccc1C1CC(=O)c2cccc(Cl)c2O1` (stereo not shown) [Example 13, 3-[2-(8-chloro-4-oxo-chroman-2-yl)-5-(trifluoromethoxy)phenoxy]propanoic Acid], the IC50 in experiment [1] is 0.39 µM; in experiment [2], 6.86 µM. On to `O=C(O)CCOc1cc(C(F)(F)F)ccc1C1CC(=O)c2ccc(F)c(Cl)c2O1` (stereo not shown) [Example 2, 3-[2-(8-chloro-7-fluoro-4-oxo-chroman-2-yl)-5-(trifluoromethyl)phenoxy]propanoic Acid], for which the IC50 in experiment [1] worked out at 1.97 µM; in experiment [2] it was 4.41 µM. With `CCS(=O)(=O)N[C@@H](COc1cc(C(F)(F)F)ccc1C1CC(=O)c2cccc(Cl)c2O1)C(=O)O` (stereo partly drawn) [Example 29, (2S)-3-[2-(8-chloro-4-oxo-chroman-2-yl)-5-(trifluoromethyl)phenoxy]-2-(ethylsulfonylamino)propanoic Acid], the IC50 in experiment [1] was determined as 1.91 µM. Same read-out and setting: then `COc1cc(C2CC(=O)c3cccc(Cl)c3O2)c(OCCC(=O)O)cc1Br` (stereo not shown) [Example 8, 3-[5-bromo-2-(8-chloro-4-oxo-chroman-2-yl)-4-methoxy-phenoxy]propanoic Acid], with 11.3 µM; and `CC(C)(COc1cc(C(F)(F)F)ccc1C1CC(=O)c2cccc(Cl)c2O1)C(=O)O` (stereo not shown) [Example 19, 3-[2-(8-chloro-4-oxo-chroman-2-yl)-5-(trifluoromethyl)phenoxy]-2,2-dimethyl-propanoic Acid], with 0.26 µM.

Regarding `O=C(O)CCOc1cc(C(F)(F)F)ccc1C1CC(=O)c2cccc(Cl)c2O1` (stereo not shown) [Example 1, 3-[2-(8-chloro-4-oxo-chroman-2-yl)-5-(trifluoromethyl)phenoxy]propanoic Acid], the IC50 in experiment [1] stood at 0.73 µM; in experiment [2], 5.31 µM. `O=C(O)CCOc1cc(C(F)(F)F)ccc1C1CC(=O)c2cc(F)cc(Cl)c2O1` (stereo not shown) [Example 3, 3-[2-(8-chloro-6-fluoro-4-oxo-chroman-2-yl)-5-(trifluoromethyl)phenoxy]propanoic Acid]: the IC50 in experiment [1] was determined as 5.59 µM; in experiment [2] it was 11.2 µM. Taken in the same sequence, the figures for `COc1cc(C2CC(=O)c3cccc(Cl)c3O2)c(OCCC(=O)O)cc1C(F)(F)F` (stereo not shown) [Example 11, 3-[2-(8-chloro-4-oxo-chroman-2-yl)-4-methoxy-5-(trifluoromethyl)phenoxy]propanoic Acid] were 5.14 µM and 8.34 µM.

In experiment [1], `Cc1cc(C2CC(=O)c3cccc(Cl)c3O2)c(OC2CC(C(=O)O)C2)cc1Cl` (stereo not shown) [Example 18, 3-[5-chloro-2-(8-chloro-4-oxo-chroman-2-yl)-4-methyl-phenoxy]cyclobutanecarboxylic Acid] gave an IC50 of 0.765 µM. Regarding `O=C(O)CCOc1cc(OC(F)(F)F)c(Br)cc1C1CC(=O)c2cccc(Cl)c2O1` (stereo not shown) [Example 15, 3-[4-bromo-2-(8-chloro-4-oxo-chroman-2-yl)-5-(trifluoromethoxy)phenoxy]propanoic Acid], the IC50 in experiment [1] turned out to be 1.5 µM. The same measure, in the same setting: with `O=C(O)COCCOc1cc(C(F)(F)F)ccc1C1CC(=O)c2cccc(Cl)c2O1` (stereo not shown) [Example 21, 2-[2-[2-(8-chloro-4-oxo-chroman-2-yl)-5-(trifluoromethyl)phenoxy]ethoxy]acetic Acid] the figure was 4.89 µM.
